The values below come from US5750700A, “Certain 1-substituted aminomethyl imidazole and pyrrole derivatives: novel dopamine receptor subtype specific ligands” (Neurogen Corporation, priority 1995, dated 1998).

Where a name gives a salt, the structure may show the parent alone.

In test [1] the target is T1, human dopamine D4 receptor subtype (Homo sapiens, UniProt P21917).
T1 construct: expressed in transfected cells
T1 sequence (P21917 1-419): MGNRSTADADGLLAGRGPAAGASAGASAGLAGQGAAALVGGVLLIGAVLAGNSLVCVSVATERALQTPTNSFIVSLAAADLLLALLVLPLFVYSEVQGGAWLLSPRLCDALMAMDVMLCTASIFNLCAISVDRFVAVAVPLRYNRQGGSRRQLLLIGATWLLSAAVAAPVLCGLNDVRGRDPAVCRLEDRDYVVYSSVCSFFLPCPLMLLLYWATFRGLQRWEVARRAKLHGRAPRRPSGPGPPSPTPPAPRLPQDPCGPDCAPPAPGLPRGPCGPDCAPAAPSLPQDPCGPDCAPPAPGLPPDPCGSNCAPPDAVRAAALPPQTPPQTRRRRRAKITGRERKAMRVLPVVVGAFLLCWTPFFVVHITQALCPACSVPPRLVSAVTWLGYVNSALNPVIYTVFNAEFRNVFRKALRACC
The experiment in a line: D4 receptor binding activity: displacement of [3H] YM-09151-2. Conditions: 0.1 nM [3H] YM-09151-2; 60 minutes at 25° C.; clonal cell lines expressing human D4. As to the method:
Assay for D4 Receptor Binding Activity
Clonal cell lines expressing the human dopamine D4 receptor subtype were harvested in PBS and the cells centrifuged and the pellets stored at -80° C. until used in the binding assay. The pellets were resuspended and the cells lysed at 4° C. in 50 mM Tris pH 7.4 buffer containing 120 mM NaCl, 2 mM EDTA and 5 mM mMgCl2. The homogenate is centrifuged at 48000×g for 10 minutes at 4° C. The resulting pellet is resuspended in fresh buffer and centrifuged again. After resuspension of the pellet in fresh buffer at 100 ul aliquot removed for the protein determination. The remaining homogenate is centrifuged as above, the supernatant removed and the pellet stored at 4° C. until needed at which time it is resuspended to a final concentration of 625 ug/ml (250 ug per sample) with 50 mM Tris buffer (pH 7.4) and 120 mM NaCl just prior to use. Incubations were carried out for 60 minutes at 25° C. in the presence of 0.1 nM [^3 H] YM-09151-2. The incubation was terminated by rapid filtration through Whatman GF/C filters and rinsed with 2×4 ml washes of chilled 50 mM Tris (pH 7.4) and 120 mM NaCl. Nonspecific binding was determined with 1 uM spiperone and radioactivity determined by counting in an LKB beta counter. Binding parameters were determined by non-linear least squares regression analysis, from which the inhibition constant Ki could be calculated for each test compound. The binding characteristics of some examples of this patent are shown in Table 2 for the dopamine D4 binding assay. […] YM-09151-2 from the human dopamine D4 receptor subtype of below […].

Test [2] has as its target D2 and D3 receptor (rat striatal homogenates). The experiment in a line: D2 and D3 receptor binding activity: displacement of 3H-raclopride in rat striatal homogenates. Also on record: species or system adult male Sprague Dawley rats. Conditions: 0.5 nM 3H-raclopride, nonspecific binding 10^-4M dopamine. On the procedure: Assay for D2 and D3 Receptor Binding Activity Striatial tissue is dissected from adult male Sprague Dawley rats or BHK 293 cells are harvested containing recombinantly produced D2 or D3 receptors. The sample is homogenized in 100 volumes (w/vol) of 0.05M Tris HCl buffer at 4° C. and pH 7.4. The sample is then centrifuged at 30,000×g and resuspended and rehomogenized. The sample is then centrifuged as described and the final tissue sample is frozen until use. The tissue is resuspended 1:20 (wt/vol) in 0.05M Tris HCl buffer containing 100 mM NaCl. […] The binding characteristics of examples of this patent are shown in Table 1 for Rat Striatal Homogenates.

For `Fc1ccc(N2CCN(Cc3cn(-c4ccccc4)cn3)CC2)cc1` [Compound 6, 1-Phenyl-4[(4-(4-fluorophenyl)-piperazin-1-yl)methyl]imidazole dihydrochloride], affinity in test [1] was put at a Ki of 3 nM. In test [2], this compound showed an IC50 of 194 nM.

In turn, `c1ccc(C2CCN(Cc3cn(-c4ccccc4)cn3)CC2)cc1` [Compound 2, 1-Phenyl-4[(4-phenyl-piperidin-1-yl)methyl]imidazole dihydrochloride] showed a Ki in test [1] of 10 nM. The IC50 in test [2] worked out at 3 nM.

`c1ccc(CC2CCN(Cc3cn(-c4ccccc4)cn3)CC2)cc1` [Compound 1, 1-phenyl-4[(4-benzyl-piperidin-1-yl)-methyl]imidazole]: the Ki in test [1] amounted to 3 nM. For the same compound, the IC50 in test [2] is 142 nM.

In turn, `c1ccc(N2CCN(Cc3cn(-c4ccccc4)cn3)CC2)cc1` [Compound 3, 1-Phenyl-4[(4-phenyl-piperazin-1-yl)methyl]imidazole dihydrochloride] displayed an inhibition constant Ki in test [1] of 2 nM. In test [2], this compound gave an IC50 of 6 nM.
